Test results reported in patent US20250197387A1, “BCL-XL DEGRADERS AND USES THEREOF” (Kymera Therapeutics, Inc., priority 2021, published 2025).

Experiments:
Assay type in all cases: cell-based
MOLT-4 cells = assay: CTG (CellTiter-Glo) cell viability assay, MOLT-4; settings: Homo sapiens, MOLT-4, 72 h, 3 day incubation, read-out: CTG Cell Viability Assay - MOLT-4 3 day: Average external-IC50
Procedure, shortened: (§1)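 Nine-point 1:3 compound series topping at 10 μM (0.2% DMSO final) applied for 3 days to 10,000 MOLT-4 or Caki-2 cells per well, 37° C., 5% CO2. CellTiter-Glo luminescence read after 10 min at room temperature; three-parameter fit gave IC50.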

BCL-XL = molecular target: T1, BCL-XL (Homo sapiens, UniProt Q07817); assay: Bcl-xL ELISA degradation in MOLT-4 cells, 6 h; settings: for DC50: read-out: Bcl-xL ELISA in MOLT-4 degradation 6 h: Mean external-Abs DC50
T1 construct: endogenous in cells; host or cells: MOLT-4
T1 sequence (Q07817 whole entry): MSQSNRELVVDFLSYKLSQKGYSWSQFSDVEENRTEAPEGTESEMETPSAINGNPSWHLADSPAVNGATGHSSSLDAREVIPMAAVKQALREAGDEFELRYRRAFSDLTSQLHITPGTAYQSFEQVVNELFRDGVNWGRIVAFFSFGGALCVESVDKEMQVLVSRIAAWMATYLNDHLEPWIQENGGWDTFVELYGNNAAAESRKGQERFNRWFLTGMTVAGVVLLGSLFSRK
Protocol: The letter codes for BCL-XL DC50 include: A (<0.01 μM); B (0.01-0.1 μM); C (>[…]); D (>0.5-1.0 μM); and E (>1.0 μM). The letter codes for Dmax % include A (>75%); B (50 to 75%); C (<50%).

Caki-2 cells = assay: CTG (CellTiter-Glo) cell viability assay, Caki-2; settings: Homo sapiens, 72 h, 3 day incubation, read-out: CTG Chempartner - Caki-2 3 day: Average external-IC50
Procedure, shortened: as §1

Compound	IC50 (MOLT-4 cells) [nM]	Dmax (BCL-XL) [%]	DC50 (BCL-XL) [nM]	IC50 (Caki-2 cells) [nM]
Cc1ncsc1-c1ccc([C@H](C)NC(=O)[C@@H]2C[C@@H](O)CN2C(=O)[C@@H](NC(=O)C2CCN(c3ccc(S(=O)(=O)NC(=O)c4nc(N5CCCc6c5nnc(Nc5nc7ccccc7s5)c6C)ccc4-c4cnn(CC5CCCCC5)c4C)cc3)CC2)C(C)(C)C)cc1 [I-310]	< 100	> 75	10 to 100	> 10000
Cc1ncsc1-c1ccc([C@H](C)NC(=O)[C@@H]2C[C@@H](O)CN2C(=O)[C@@H](NC(=O)CCCCCS(=O)(=O)NC(=O)c2nc(N3CCc4cccc(C(=O)Nc5nc6ccccc6s5)c4C3)ccc2-c2cnn(CC3CCCCC3)c2C)C(C)(C)CCO)cc1 [I-365]	< 100	> 75	10 to 100	> 10000
Cc1ncsc1-c1ccc(CNC(=O)[C@@H]2C[C@@H](O)CN2C(=O)[C@@H](NC(=O)[C@H]2CCN(c3ccc(S(=O)(=O)NC(=O)c4nc(N5CCc6cccc(C(=O)Nc7nc8ccccc8s7)c6C5)ccc4-c4cnn(CC5CCCCC5)c4C)cc3)C2)C(C)(C)C)cc1 [I-359]	< 100	> 75	< 10	> 10000
Cc1ncsc1-c1ccc([C@H](C)NC(=O)[C@@H]2C[C@@H](O)CN2C(=O)[C@@H](NC(=O)CCCCCS(=O)(=O)NC(=O)c2nc(N3CCc4cccc(C(=O)Nc5nc6ccccc6s5)c4C3)ccc2-c2ccnc(N(C)C(C)C)c2C)C(C)(C)C)cc1 [I-333]	100 to 1000	50 to 75	100 to 500	> 10000
Cc1cc(N(C)c2ccc(-c3cnn(CC45CC6CC(CC(C6)C4)C5)c3C)c(C(=O)NS(=O)(=O)CCCC(=O)N[C@H](C(=O)N3C[C@H](O)C[C@H]3C(=O)N[C@@H](C)c3ccc(-c4scnc4C)cc3)C(C)(C)C)n2)nnc1Nc1nc2cccnc2s1 [I-452]	1000 to 3000	> 75	100 to 500	> 10000
C#Cc1ccc([C@H](C)NC(=O)[C@@H]2C[C@@H](O)CN2C(=O)[C@@H](NC(=O)CCCCCS(=O)(=O)NC(=O)c2nc(N(C)c3cc(C)c(Nc4nc5ccccc5s4)nn3)ccc2-c2cnn(CC(C)(C)C)c2C)C(C)(C)C)cc1 [I-473]	1000 to 3000	> 75	500 to 1000	> 10000
Cc1cc(N(C)c2ccc(-c3cnn(CC45CC6CC(CC(C6)C4)C5)c3C)c(C(=O)NS(=O)(=O)c3ccc(N4CC(C(=O)N[C@H](C(=O)N5C[C@H](O)C[C@H]5C(=O)NCc5ccc(-c6scnc6C)cc5)C(C)(C)C)C4)cc3)n2)nnc1Nc1nc2ccccc2s1 [I-437]	< 100	> 75	10 to 100	> 10000
Cc1ncsc1-c1ccc([C@H](C)NC(=O)[C@@H]2C[C@@H](O)CN2C(=O)[C@@H](NC(=O)C2CCN(c3ccc(S(=O)(=O)NCc4nc(N5CCc6cccc(C(=O)Nc7nc8ccccc8s7)c6C5)ccc4-c4cnn(CC5CCCCC5)c4C)cc3)CC2)C(C)(C)C)cc1 [I-324]	> 3000	< 50	> 1000	> 10000
C#Cc1ccc([C@H](C)NC(=O)[C@@H]2C[C@@H](O)CN2C(=O)[C@@H](NC(=O)CCCCCS(=O)(=O)NC(=O)c2nc(N(C)c3cc(C)c(Nc4nc5ccccc5s4)nn3)ccc2-c2cnn(CC34CC5CC(CC(C5)C3)C4)c2C)C(C)(C)C)c(OCCO)c1 [I-477]	< 100	> 75	< 10	> 10000
C#Cc1ccc(CNC(=O)[C@@H]2C[C@@H](O)CN2C(=O)[C@@H](NC(=O)CCc2ccc(S(=O)(=O)NC(=O)c3nc(N(C)c4cc(C)c(Nc5nc6ccccc6s5)nn4)ccc3-c3cnn(CC(C)C)c3C)cc2)C(C)(C)C)cc1 [I-326]	> 3000	< 50	> 1000	> 10000
C#Cc1ccc(CNC(=O)[C@@H]2C[C@@H](O)CN2C(=O)[C@@H](NC(=O)CCCCS(=O)(=O)NC(=O)c2nc(N(C)c3cc(C)c(Nc4nc5cccnc5s4)nn3)ccc2-c2cnn(CC34CC5CC(CC(C5)C3)C4)c2C)C(C)(C)C)cc1 [I-453]	> 3000	> 75	100 to 500	> 10000
Cc1cc(N(C)c2ccc(-c3cnn(CC45CC6CC(CC(C6)C4)C5)c3C)c(C(=O)NS(=O)(=O)CCCCC(=O)N[C@H](C(=O)N3C[C@H](O)C[C@H]3C(=O)NCc3ccc(-c4scnc4C)cc3)C(C)(C)C)n2)nnc1Nc1nc2ccccc2s1 [I-371]	100 to 1000	> 75	< 10	> 10000
Cc1cc(N(C)c2ccc(-c3cnn(CC4CCCCC4)c3C)c(C(=O)NS(=O)(=O)CCCCCC(=O)N[C@H](C(=O)N3C[C@H](O)C[C@H]3C(=O)N[C@@H](C)c3ccc(-c4scnc4C)cc3)C(C)(C)C)n2)nnc1Nc1nc2cccnc2s1 [I-436]	1000 to 3000	> 75	500 to 1000	> 10000
C#Cc1ccc(CNC(=O)[C@@H]2C[C@@H](O)CN2C(=O)[C@@H](NC(=O)CCNCCS(=O)(=O)NC(=O)c2nc(N(C)c3cc(C)c(Nc4nc5ccccc5s4)nn3)ccc2-c2cnn(CC34CC5CC(CC(C5)C3)C4)c2C)C(C)(C)C)cc1 [I-429]	100 to 1000	> 75	10 to 100	> 10000
C#Cc1ccc(CNC(=O)[C@@H]2C[C@@H](O)CN2C(=O)[C@@H](NC(=O)CCCCCS(=O)(=O)NC(=O)c2nc(N3CCc4cccc(C(=O)Nc5nc6ccccc6s5)c4C3)ccc2-c2cnn(CC3CCCC3)c2C)C(C)(C)C)cc1 [I-444]	< 100	> 75	< 10	> 10000
Cc1ncsc1-c1ccc([C@H](C)NC(=O)[C@@H]2C[C@@H](O)CN2C(=O)[C@@H](NC(=O)CCCCCS(=O)(=O)NC(=O)c2nc(N3CCc4cccc(C(=O)Nc5nc6cccnc6s5)c4C3)ccc2-c2cnn(CC3CCCCC3)c2C)C(C)(C)C)cc1 [I-363]	< 100	> 75	10 to 100	> 10000
Cc1cc(N(C)c2ccc(-c3cnn(CC45CC6CC(CC(C6)C4)C5)c3C)c(C(=O)NS(=O)(=O)CCCCCC(=O)N[C@H](C(=O)N3C[C@H](O)C[C@H]3C(=O)NCc3ccc(-c4scnc4C)cc3)C(C)(C)C)n2)nnc1Nc1nc2ccccc2s1 [I-367]	< 100	> 75	10 to 100	> 10000
Cc1c(-c2ccc(N3CCc4cccc(C(=O)Nc5nc6ccccc6s5)c4C3)nc2C(=O)NS(=O)(=O)CCCCCc2ccc3c(c2)n(C)c(=O)n3C2CCC(=O)NC2=O)cnn1CC1CCCCC1 (centres unmarked) [I-425]	< 100	> 75	< 10	1000 to 10000
Cc1ncsc1-c1ccc(CNC(=O)[C@@H]2C[C@@H](O)CN2C(=O)[C@@H](NC(=O)C2CCN(c3ccc(S(=O)(=O)NC(=O)c4nc(N5CCc6cccc(C(=O)Nc7nc8ccccc8s7)c6C5)ccc4-c4cnn(CC5CCCCC5)c4C)c(F)c3)CC2)C(C)(C)C)cc1 [I-339]	< 100	> 75	< 10	1000 to 10000
Cc1ncsc1-c1ccc([C@H](C)NC(=O)[C@@H]2C[C@@H](O)CN2C(=O)[C@@H](NC(=O)C2CCN(c3ccc(S(=O)(=O)NC(=O)c4nc(N5CCc6cccc(C(=O)Nc7nc8ccccc8s7)c6C5)ccc4-c4ccnc(OC(C)C)c4C)cc3)CC2)C(C)(C)C)cc1 [I-300]	100 to 1000	50 to 75	100 to 500	1000 to 10000
Cc1cc(N(C)c2ccc(-c3cnn(CC45CC6CC(CC(C6)C4)C5)c3C)c(C(=O)NS(=O)(=O)CCCC(=O)N[C@H](C(=O)N3C[C@H](O)C[C@H]3C(=O)N[C@@H](C)c3ccc(-c4scnc4C)cc3)C(C)(C)C)n2)nnc1Nc1nc2ccccc2s1 [I-370]	< 100	> 75	10 to 100	> 10000
C#Cc1ccc([C@H](CO)NC(=O)[C@@H]2C[C@@H](O)CN2C(=O)[C@@H](NC(=O)CCCCCS(=O)(=O)NC(=O)c2nc(N3CCc4cccc(C(=O)Nc5nc6cccnc6s5)c4C3)ccc2-c2cnn(CC3CCCCC3)c2C)C(C)(C)C)cc1 [I-488]	< 100	> 75	10 to 100	> 10000
Cc1ncsc1-c1ccc([C@H](C)NC(=O)[C@@H]2C[C@@H](O)CN2C(=O)[C@@H](NC(=O)CCCCCS(=O)(=O)NC(=O)c2nc(N3CCc4cccc(C(=O)Nc5nc6ccccc6s5)c4C3)ccc2-c2cccc3c2cnn3C(C)C)C(C)(C)C)cc1 [I-302]	1000 to 3000	50 to 75	500 to 1000	1000 to 10000
Cc1ncsc1-c1ccc([C@H](C)NC(=O)[C@@H]2C[C@@H](O)CN2C(=O)[C@@H](NC(=O)C2CCN(CCCS(=O)(=O)NC(=O)c3nc(N4CCc5cccc(C(=O)Nc6nc7ccccc7s6)c5C4)ccc3-c3cnn(CC4CCCCC4)c3C)CC2)C(C)(C)C)cc1 [I-381]	100 to 1000	> 75	10 to 100	> 10000
Cc1cc(N(C)c2ccc(-c3cnn(CC45CC6CC(CC(C6)C4)C5)c3C)c(C(=O)NS(=O)(=O)CCCCCC(=O)N[C@H](C(=O)N3C[C@H](O)C[C@H]3C(=O)N[C@H](C)c3ccc4c(c3)c(C)nn4C)C(C)(C)C)n2)nnc1Nc1nc2ccccc2s1 (single isomer, unassigned) [I-492]	100 to 1000	> 75	10 to 100	> 10000
Cc1c(-c2ccc(N3CCc4cccc(C(=O)Nc5nc6cccnc6s5)c4C3)nc2C(=O)NS(=O)(=O)CCCCCC(=O)N[C@H](C(=O)N2C[C@H](O)C[C@H]2C(=O)N[C@H](C)c2ccc(C#N)cc2O)C(C)(C)C)cnn1CC1CCCCC1 (single isomer, unassigned) [I-486]	100 to 1000	> 75	10 to 100	> 10000
